Reference: patent publication US9040523B2, “Antifungal 5,6-dihydro-4H-pyrrolo[1,2-α][1,4]-benzodiazepines and 6H-pyrrolo[1,2-α][1,4]benzodiazepines substituted with benzene derivatives” (JANSSEN PHARMACEUTICA NV, priority 2010, dated 2015)
Structures can show the parent of a compound that is named as a salt. Values belong to the compound of their own block, whether it stands above or below them.

Columns and labels:
Type in all cases: cell-based
[1] = test system: Trichophyton rubrum B68183; assay: Antifungal activity in vitro (resazurin susceptibility screen), Inf. C; details: Trichophyton rubrum B68183, 27 °C, 7 days, resa time 24 hours; for IC50: read-out: Inf. C pIC50 (converted)
Description: (§1) The standard susceptibility screen was performed in 96-well plates (U-bottom, Greiner Bio-One). […] These serial dilutions (10 n1) were then spotted onto test-plates that could be stored in the dark at 4° C. for a maximum period of 2 weeks. […] The different fungal species/isolates (Table 3a) were cryopreserved and 1/1000 diluted in medium just prior to use. A standard inoculum of 200 μl containing 10^3 colony-forming unit (cfu) was then added to each well. A positive control (100% growth=fungal culture without antifungal) and a negative control (0% growth ═RPMI-MOPS medium) were included on each plate. […] [table]

[2] = test system: Microsporum canis B68128; assay: Antifungal activity in vitro (resazurin susceptibility screen), Inf. B; details: 27 °C, 9 days, resa time 24 hours; for Inf. B pIC50: Microsporum canis B68128; for IC50: Microsporum canis, B68128, Microsporum canis B68128, read-out: Inf. B pIC50 (converted)
Description: (§2) The standard susceptibility screen was performed in 96-well plates (U-bottom, Greiner Bio-One). […] These serial dilutions (10 n1) were then spotted onto test-plates that could be stored in the dark at 4° C. for a maximum period of 2 weeks. […] A standard inoculum of 200 μl containing 10^3 colony-forming unit (cfu) was then added to each well. A positive control (100% growth=fungal culture without antifungal) and a negative control (0% growth ═RPMI-MOPS medium) were included on each plate.

[3] = test system: Aspergillus fumigatus B42928; assay: Antifungal activity in vitro (resazurin susceptibility screen), Inf. E; details: Aspergillus fumigatus B42928, 27 °C, 48 hours, resa time 17 hours; for IC50: read-out: Inf. E pIC50 (converted)
Description: as §1

[4] = test system: Sporothrix schenkii B62482; assay: Antifungal activity in vitro (resazurin susceptibility screen), Inf. A; details: 27 °C, 4 days, resa time 24 hours, highest in-test concentration 64 μM; for Inf. A pIC50: Sporothrix schenkii B62482; for IC50: Sporothrix, B62482, Sporothrix schenkii B62482, read-out: Inf. A pIC50 (converted)
Description: as §1

[5] = test system: Candida parapsilosis B66126; assay: Antifungal activity in vitro (resazurin susceptibility screen), Inf. D; details: Candida parapsilosis B66126, 37 °C, 24 hours, resa time 4 hours; for IC50: Lodderomyces parapsilosis, read-out: Inf. D pIC50 (converted)
Description: as §2

[6] = test system: Cryptococcus neoformans B66663; assay: Antifungal activity in vitro (resazurin susceptibility screen), Inf. F; details: 37 °C, 24 hours, resa time 4 hours; for Inf. F pIC50: Cryptococcus neoformans B66663; for IC50: Cryptococcus neoformans, B66663, Cryptococcus neoformans B66663, read-out: Inf. F pIC50 (converted)
Description: as §1

[7] = test system: Trichophyton mentagrophytes B70554; assay: Antifungal activity in vitro (resazurin susceptibility screen), Inf. G; details: 27 °C, 7 days, resa time 24 hours; for Inf. G pIC50: Trichophyton mentagrophytes B70554; for IC50: Trichophyton mentagrophytes, B70554, Trichophyton mentagrophytes B70554, read-out: Inf. G pIC50 (converted)
Description: as §2

SMILES: CC(O)c1ccc(C2NCc3c(ccc(Cl)c3Cl)-n3cccc32)cc1.Cl (stereo not drawn) [Compound 2, 4-(7,8-dichloro-5,6-dihydro-4H-pyrrolo[1,2-a][1,4]benzodiazepin-4-yl)-alpha-methyl-benzenemethanol .HCl]
Inf. C pIC50 [1]: <4.2 | Inf. B pIC50 [2]: 4.7 | Inf. E pIC50 [3]: <4.2 | Inf. A pIC50 [4]: <4.2 | Inf. D pIC50 [5]: <4.2 | Inf. F pIC50 [6]: <4.2 | Inf. G pIC50 [7]: <4.2

SMILES: CC(O)c1ccc(C2NCc3cc(Cl)cc(Cl)c3-n3cccc32)cc1.Cl (stereo not drawn) [Compound 3, 4-(8,10-dichloro-5,6-dihydro-4H-pyrrolo[1,2-a][1,4]benzodiazepin-4-yl)-alpha-methyl-benzenemethanol .HCl]
Inf. C pIC50 [1]: 6 | Inf. B pIC50 [2]: 5.0 | Inf. E pIC50 [3]: <4.2 | Inf. A pIC50 [4]: <4.2 | Inf. D pIC50 [5]: <4.2 | Inf. F pIC50 [6]: 4.7 | Inf. G pIC50 [7]: 4.4

SMILES: CC(=O)c1cccc(C2NCc3c(Cl)cccc3-n3cccc32)c1 (stereo not shown) [Compound 4, 1-[3-(7-chloro-5,6-dihydro-4H-pyrrolo[1,2-a][1,4]benzodiazepin-4-yl)phenyl]-ethanone]
IC50 [1]: 5.01 µM | IC50 [2]: 10 µM | IC50 [3]: > 63.1 µM | IC50 [4]: > 63.1 µM | IC50 [5]: > 63.1 µM | IC50 [6]: > 63.1 µM

SMILES: Br.CC(=O)c1ccc(C2NCc3c(Cl)cccc3-n3cccc32)cc1 (stereo not shown) [Compound 6, 1-[4-(7-chloro-5,6-dihydro-4H-pyrrolo[1,2-a][1,4]benzodiazepin-4-yl)phenyl]-ethanone .HBr]
Inf. C pIC50 [1]: 6.4 | Inf. B pIC50 [2]: 6.2 | Inf. E pIC50 [3]: 4.5 | Inf. A pIC50 [4]: 4.7 | Inf. D pIC50 [5]: <4.2 | Inf. F pIC50 [6]: <4.2

SMILES: CC(=O)c1cc(C2NCc3c(Cl)cccc3-n3cccc32)ccc1F.Cl (stereo not shown) [Compound 7, 1-[5-(7-chloro-5,6-dihydro-4H-pyrrolo[1,2-a][1,4]benzodiazepin-4-yl)-2-fluorophenyl]-ethanone .HCl]
Inf. C pIC50 [1]: 6.0 | Inf. B pIC50 [2]: 5.1 | Inf. E pIC50 [3]: <4.2 | Inf. A pIC50 [4]: <4.2 | Inf. D pIC50 [5]: <4.2 | Inf. F pIC50 [6]: <4.2 | Inf. G pIC50 [7]: 5.2

SMILES: CC(=O)c1ccc(C2NCc3c(ccc(Cl)c3Cl)-n3cccc32)cc1.Cl (stereo not shown) [Compound 9, 1-[4-(7,8-dichloro-5,6-dihydro-4H-pyrrolo[1,2-a][1,4]benzodiazepin-4-yl)phenyl]-ethanone .HCl]
Inf. C pIC50 [1]: 5.7 | Inf. B pIC50 [2]: 5.6 | Inf. E pIC50 [3]: <4.2 | Inf. A pIC50 [4]: 5.0 | Inf. D pIC50 [5]: <4.2 | Inf. F pIC50 [6]: 4.5 | Inf. G pIC50 [7]: 4.5

SMILES: CC(=O)c1cccc(C2NCc3c(Cl)cc(Cl)cc3-n3cccc32)c1.Cl (stereo not shown) [Compound 10, 1-[3-(7,9-dichloro-5,6-dihydro-4H-pyrrolo[1,2-a][1,4]benzodiazepin-4-yl)phenyl]-ethanone .HCl]
Inf. C pIC50 [1]: 5.7 | Inf. B pIC50 [2]: 5.3 | Inf. E pIC50 [3]: <4.2 | Inf. A pIC50 [4]: <4.2 | Inf. D pIC50 [5]: <4.2 | Inf. F pIC50 [6]: <4.2 | Inf. G pIC50 [7]: 5.2

SMILES: CC(=O)c1ccc(C2NCc3c(Cl)cc(Cl)cc3-n3cccc32)cc1.Cl (stereo not shown) [Compound 12, 1-[4-(7,9-dichloro-5,6-dihydro-4H-pyrrolo[1,2-a][1,4]benzodiazepin-4-yl)phenyl]-ethanone .HCl]
Inf. C pIC50 [1]: 5.7 | Inf. B pIC50 [2]: 4.9 | Inf. E pIC50 [3]: <4.2 | Inf. A pIC50 [4]: <4.2 | Inf. D pIC50 [5]: <4.2 | Inf. F pIC50 [6]: <4.2 | Inf. G pIC50 [7]: 5.1

SMILES: CS(=O)(=O)c1cccc(C2=NCc3c(Cl)cccc3-n3cccc32)c1 [Compound 27]
Inf. C pIC50 [1]: 5.1 | Inf. B pIC50 [2]: 5.2 | Inf. E pIC50 [3]: <4.2 | Inf. A pIC50 [4]: <4.2 | Inf. D pIC50 [5]: <4.2 | Inf. F pIC50 [6]: 4.2 | Inf. G pIC50 [7]: 5.1

IC50 [1]: 2 µM | IC50 [2]: 3.98 µM | IC50 [3]: 63.1 µM | IC50 [4]: 50.1 µM | IC50 [5]: > 63.1 µM | IC50 [6]: 15.8 µM | IC50 [7]: 6.31 µM
SMILES: CS(=O)(=O)c1ccc(C2=NCc3c(Cl)cc(Cl)cc3-n3cccc32)cc1 [Compound 30, 7,9-dichloro-4-[4-(methylsulfonyl)phenyl]-6H-pyrrolo[1,2-a][1,4]benzodiazepine]

SMILES: OCCc1ccc(C2NCc3c(Cl)cc(Cl)cc3-n3cccc32)cc1 (stereo not shown) [Compound 34, 4-(7,9-dichloro-5,6-dihydro-4H-pyrrolo[1,2-a][1,4]benzodiazepin-4-yl)-benzeneethanol .HCl]
IC50 [1]: 12.6 µM | IC50 [2]: 2 µM | IC50 [3]: > 63.1 µM | IC50 [4]: > 63.1 µM | IC50 [5]: > 63.1 µM | IC50 [6]: 31.6 µM | IC50 [7]: 20 µM

SMILES: Cl.OCCc1ccc(C2NCc3c(Cl)cccc3-n3cccc32)cc1 (stereo not shown) [Compound 35, 4-(7-chloro-5,6-dihydro-4H-pyrrolo[1,2-a][1,4]benzodiazepin-4-yl)-benzeneethanol .HCl]
Inf. C pIC50 [1]: 5.1 | Inf. B pIC50 [2]: 4.4 | Inf. E pIC50 [3]: <4.2 | Inf. A pIC50 [4]: <4.2 | Inf. D pIC50 [5]: <4.2 | Inf. F pIC50 [6]: 4.3 | Inf. G pIC50 [7]: 4.9

SMILES: Cl.OCCc1ccc(C2NCc3cc(Cl)cc(Cl)c3-n3cccc32)cc1 (stereo not shown) [Compound 36, 4-(8,10-dichloro-5,6-dihydro-4H-pyrrolo[1,2-a][1,4]benzodiazepin-4-yl)-benzeneethanol .HCl]
Inf. C pIC50 [1]: 4.5 | Inf. B pIC50 [2]: 4.3 | Inf. E pIC50 [3]: <4.2 | Inf. A pIC50 [4]: <4.2 | Inf. D pIC50 [5]: <4.2 | Inf. F pIC50 [6]: 4.6 | Inf. G pIC50 [7]: 4.7

SMILES: Cl.OCCc1ccc(C2NCc3c(ccc(Cl)c3Cl)-n3cccc32)cc1 (stereo not shown) [Compound 37, 4-(7,8-dichloro-5,6-dihydro-4H-pyrrolo[1,2-a][1,4]benzodiazepin-4-yl)-benzeneethanol .HCl]
Inf. C pIC50 [1]: 4.5 | Inf. B pIC50 [2]: <4.2 | Inf. E pIC50 [3]: 4.4 | Inf. A pIC50 [4]: 4.8 | Inf. D pIC50 [5]: <4.2 | Inf. F pIC50 [6]: 5.0 | Inf. G pIC50 [7]: 4.4

SMILES: Cl.OCCc1ccc(C2NCc3c(Cl)ccc(Cl)c3-n3cccc32)cc1 (stereo not shown) [Compound 38, 4-(7,10-dichloro-5,6-dihydro-4H-pyrrolo[1,2-a][1,4]benzodiazepin-4-yl)-benzeneethanol .HCl]
Inf. C pIC50 [1]: 5.1 | Inf. B pIC50 [2]: 5.7 | Inf. E pIC50 [3]: <4.2 | Inf. A pIC50 [4]: <4.2 | Inf. D pIC50 [5]: <4.2 | Inf. F pIC50 [6]: 4.7 | Inf. G pIC50 [7]: 4.7
